Assay results reported in US20240383870A1, “HETEROCYCLIC ALDEHYDE TRAPPING COMPOUNDS AND USES THEREOF” (Aldeyra Therapeutics, Inc., priority 2021, published 2024).

Columns and labels:
Type in all cases: in vivo
KC = assay: Acute LPS-induced sepsis in C57BL/6 mice: KC cytokine detection assay; details: LPS-challenged mice, plasma at 6.5 h, unpaired t-test vs vehicle
Description: FIG. 20 is a graph showing the results of a KC cytokine detection assay in samples collected from mouse subjects after administration of compounds of the present disclosure.
(§1) The primary objective of this study was to collect plasma samples of lipopolysaccharide (LPS) challenged C57BL/6 mice after dose of test compounds to provide a cytokine profile as impacted by prophylactic treatments. This study models acute sepsis, which is a systemic inflammatory syndrome initiated by Gram-negative and Gram-positive bacteria and fungi which infect the lungs, abdomen, bloodstream, and renal or genitourinary tracts. Sepsis patients ultimately die of multiorgan failure which is caused by extensive tissue hypo-oxygenation due to ongoing microvascular leakage, disseminated intravascular coagulation, compromised energy production, and metabolic alterations. Sepsis is characterized by an early systemic inflammatory response phase featuring symptoms, such as tachycardia, fever, hyperventilation, and activation of the complement and coagulation cascades. However, it is now appreciated that a compensatory anti-inflammatory response phase follows, characterized by neuroendocrine-mediated immunosuppression. Since these processes are the result of interaction between cells of inflammation and organs, investigation of the treatment of this syndrome requires the use of intact animal models. The use of ten mice per group allows useful statistical modelling of the results.
(§2) For the data shown in Table 2A, 103 mice (female, 18-22 gram, C57BL/6) were purchased from ENVIGO. The mice were housed in 20 cages of 5 mice per cage with 1 cage of 3 mice as extra. The cages had filter tops and autoclaved bedding, and the animals were placed in quarantine with daily inspection. The treatment groups are detailed in Table 2A below. 10 mice were included in each group. The mice were dosed by oral gavage (PO) at 10 ml/kg as per the table below. MC=methyl cellulose.
as §2, with “2B, 185” for “2A, 103”, “37” for “20”, “cage.” for “cage with 1 cage of 3 mice as extra.”, “2B” for “2A”, “(P0)” for “(PO)”
(§3) At T=0 h, the mice were dosed with one of the test compounds as described in the above table.
(§4) At T=0.5 h, the mice were injected IP with 1.5 mg/kg […] (Sigma).
(§5) At T=6.5 h, all mice were anesthetized and exsanguinated into pre-chilled EDTA-treated tubes. The blood was processed to plasma which was stored in labeled 0.5 polypropylene snap-cap tubes (0.5 mL Eppendorf Safe-Lock Tubes (Fisher Scientific) at −80° C.
(§6) Preparation of vehicle: 1.0 gram of methyl cellulose (Sigma) was dissolved in 200 mL of water (USP purified) to make a solution of 0.5% methyl cellulose in water. Preparation of LPS solution: 6 mg of LPS (from Escherichia Coli 055:B5, Cat #L2880, Sigma Lot #057m4013) was dissolved in 20 ml of saline to give a LPS solution of 0.3 mg/ml. All mice were injected with 5 ml/kg (1.5 mg/kg) at the scheduled time by intraperitoneal injection.
(§7) A 32-plex cytokine panel was obtained from Eve Technologies. Each cytokine was assessed based against a 7 point curve range in duplicate. The average of the two replicate analyses was used for statistics. Unpaired t-tests were performed using Excel™ contrasting vehicle against each treatment group. One star indicates P<0.05. Two stars indicates P<0.01. Three stars indicates P<0.001. Four stars indicates P<0.0001. Most, but not all, statistically significant results are indicated with star(s).

IL-6 = assay: Acute LPS-induced sepsis in C57BL/6 mice: IL-6 cytokine detection assay; details: 200 mpk PO; LPS-challenged mice, plasma at 6.5 h; unpaired t-test vs vehicle
Description: FIG. 11 is a graph showing the results of an IL-6 cytokine detection assay in samples collected from mouse subjects after administration of compounds of the present disclosure.
as §1, §2
as §2, with “2B, 185” for “2A, 103”, “37” for “20”, “cage.” for “cage with 1 cage of 3 mice as extra.”, “2B” for “2A”, “(P0)” for “(PO)”
as §3, §4
(§8) At T=6.5 h, all mice were anesthetized and exsanguinated into pre-chilled EDTA-treated tubes. […]
(§9) A 32-plex cytokine panel was obtained from Eve Technologies. Each cytokine was assessed based against a 7 point curve range in duplicate. […]

M-CSF (CSF1) = assay: Acute LPS-induced sepsis in C57BL/6 mice: M-CSF (CSF1) cytokine detection assay; details: LPS-challenged mice, plasma at 6.5 h, unpaired t-test vs vehicle
Description: FIG. 24 is a graph showing the results of an M-CSF (CSF1) cytokine detection assay in samples collected from mouse subjects after administration of compounds of the present disclosure. M-CSF causes hematopoietic stem cells to differentiate into macrophages.
as §1, §2
as §2, with “2B, 185” for “2A, 103”, “37” for “20”, “cage.” for “cage with 1 cage of 3 mice as extra.”, “2B” for “2A”, “(P0)” for “(PO)”
as §3, §4, §5, §6, §7

TNFα = assay: Acute LPS-induced sepsis in C57BL/6 mice: TNFα cytokine detection assay; details: 200 mpk PO; LPS-challenged mice, plasma at 6.5 h; unpaired t-test vs vehicle
Description: FIG. 29 is a graph showing the results of a TNFα cytokine detection assay in samples collected from mouse subjects after administration of compounds of the present disclosure.
as §1
as §2, with “cellulose. […]” for “cellulose.”
as §9

MCP-1(CCL2) = assay: Acute LPS-induced sepsis in C57BL/6 mice: MCP-1(CCL2) cytokine detection assay; details: 200 mpk PO; LPS-challenged mice, plasma at 6.5 h; unpaired t-test vs vehicle
[1] = system: leukemia inhibitory factor (LIF); assay: Acute LPS-induced sepsis in C57BL/6 mice: leukemia inhibitory factor (LIF) cytokine detection assay; details: 75 mpk PO; LPS-challenged mice, plasma at 6.5 h; unpaired t-test vs vehicle
Description: FIG. 21 is a graph showing the results of a leukemia inhibitory factor (LIF) cytokine detection assay in samples collected from mouse subjects after administration of compounds of the present disclosure. LIF is an interleukin 6 class cytokine that affects cell growth by inhibiting differentiation.
as §1, §2
as §2, with “2B, 185” for “2A, 103”, “37” for “20”, “cage.” for “cage with 1 cage of 3 mice as extra.”, “2B” for “2A”, “(P0)” for “(PO)”
as §3, §4, §5, §6, §9

IL-17 = assay: Acute LPS-induced sepsis in C57BL/6 mice: IL-17 cytokine detection assay; details: 75 mpk PO; LPS-challenged mice, plasma at 6.5 h; unpaired t-test vs vehicle
Description: FIG. 19 is a graph showing the results of an IL-17 cytokine detection assay in samples collected from mouse subjects after administration of compounds of the present disclosure.
as §1
as §2, with “The mice were dosed by oral gavage (PO) at 10 ml/kg as per the table below.” left out
as §2, with “2B, 185” for “2A, 103”, “37” for “20”, “cage.” for “cage with 1 cage of 3 mice as extra.”, “2B” for “2A”, “(P0)” for “(PO)”
as §3, §4, §8, §9

IL-13 = assay: Acute LPS-induced sepsis in C57BL/6 mice: IL-13 cytokine detection assay; details: LPS-challenged mice, plasma at 6.5 h, unpaired t-test vs vehicle
Description: FIG. 17 is a graph showing the results of an IL-13 cytokine detection assay in samples collected from mouse subjects after administration of compounds of the present disclosure.
as §1, §2
as §2, with “2B, 185” for “2A, 103”, “37” for “20”, “cage.” for “cage with 1 cage of 3 mice as extra.”, “2B” for “2A”, “(P0)” for “(PO)”
as §3, §4, §5, §6
A 32-plex cytokine panel was obtained from Eve Technologies. Each cytokine was assessed based against a 7 point curve range in duplicate. The average of the two replicate analyses was used for statistics. […]

IFNγ = assay: Acute LPS-induced sepsis in C57BL/6 mice: IFNγ cytokine detection assay; details: 75 mpk PO; LPS-challenged mice, plasma at 6.5 h; unpaired t-test vs vehicle
IL-12(p70) = assay: Acute LPS-induced sepsis in C57BL/6 mice: IL-12(p70) cytokine detection assay; details: LPS-challenged mice, plasma at 6.5 h, unpaired t-test vs vehicle
Description: FIG. 16 is a graph showing the results of an IL-12(p70) cytokine detection assay in samples collected from mouse subjects after administration of compounds of the present disclosure.
as §1
as §2, with “The mice were dosed by oral gavage (PO) at 10 ml/kg as per the table below.” left out
as §2, with “2B, 185” for “2A, 103”, “37” for “20”, “cage.” for “cage with 1 cage of 3 mice as extra.”, “2B” for “2A”, “(P0)” for “(PO)”
as §3, §4, §5, §6
A 32-plex cytokine panel was obtained from Eve Technologies. Each cytokine was assessed based against a 7 point curve range in duplicate. The average of the two replicate analyses was used for statistics. Unpaired t-tests were performed using Excel™ contrasting vehicle against each treatment group. One star indicates P<0.05. […]

IL-10 = assay: Acute LPS-induced sepsis in C57BL/6 mice: IL-10 cytokine detection assay; details: LPS-challenged mice, plasma at 6.5 h, unpaired t-test vs vehicle
MIP2(CXCL2) = assay: Acute LPS-induced sepsis in C57BL/6 mice: MIP2(CXCL2) cytokine detection assay; details: 75 mpk PO; LPS-challenged mice, plasma at 6.5 h; unpaired t-test vs vehicle
Description: FIG. 27 is a graph showing the results of a MIP2(CXCL2) cytokine detection assay in samples collected from mouse subjects after administration of compounds of the present disclosure.
as §1
as §2, with “The mice were dosed by oral gavage (PO) at 10 ml/kg as per the table below.” left out
as §2, with “2B, 185” for “2A, 103”, “37” for “20”, “cage.” for “cage with 1 cage of 3 mice as extra.”, “2B” for “2A”, “(P0)” for “(PO)”
as §3, §4, §8, §9

IL-3 = assay: Acute LPS-induced sepsis in C57BL/6 mice: IL-3 cytokine detection assay; details: LPS-challenged mice, plasma at 6.5 h, unpaired t-test vs vehicle
IL-9 = assay: Acute LPS-induced sepsis in C57BL/6 mice: IL-9 cytokine detection assay; details: 125 mpk PO; LPS-challenged mice, plasma at 6.5 h; unpaired t-test vs vehicle
Description: FIG. 13 is a graph showing the results of an IL-9 cytokine detection assay in samples collected from mouse subjects after administration of compounds of the present disclosure.
as §1
as §2, with “cellulose. […]” for “cellulose.”
as §9

CC(C)(O)c1cc(F)c(F)cc1N [Compound I-27, 2-(2-Amino-4,5-difluorophenyl) propan-2-ol]
KC: significant cytokine change vs. vehicle (KC; 200 mpk PO): * (One star indicates P<0.05)

COc1ccc2c(c1)NC(=O)[C@@H](CO)N2 [Compound I-7, (R)-3-(Hydroxymethyl)-7-methoxy-3,4-dihydroquinoxalin-2(1H)-one]
IL-6: significant cytokine change vs. vehicle (IL-6): * (One star indicates P<0.05) | M-CSF: significant cytokine change vs. vehicle (M-CSF (CSF1); 200 mpk PO): *** (Three stars indicates P<0.001) | TNFa: significant cytokine change vs. vehicle (TNFα): * (One star indicates P<0.05) | KC: significant cytokine change vs. vehicle (KC; 200 mpk PO): * (One star indicates P<0.05) | MCP-1: significant cytokine change vs. vehicle (MCP-1(CCL2)): * (One star indicates P<0.05)

Cc1cnc(C(C)(C)O)c(N)c1 [Compound I-32, 2-(3-Amino-5-methylpyridin-2-yl) propan-2-ol]
LIF: significant cytokine change vs. vehicle [1]: **** (Four stars indicates P<0.0001) | IL-17: significant cytokine change vs. vehicle (IL-17): * (One star indicates P<0.05) | IL-13: significant cytokine change vs. vehicle (IL-13; 75 mpk PO): *** (Three stars indicates P<0.001) | M-CSF: significant cytokine change vs. vehicle (M-CSF (CSF1); 75 mpk PO): **** (Four stars indicates P<0.0001) | IFNy: significant cytokine change vs. vehicle (IFNγ): **** (Four stars indicates P<0.0001) | IL-12 (p70): significant cytokine change vs. vehicle (IL-12(p70); 75 mpk PO): * (One star indicates P<0.05) | IL-10: significant cytokine change vs. vehicle (IL-10; 75 mpk PO): * (One star indicates P<0.05)

CC(C)(O)c1ncc(C(F)(F)F)cc1N [Compound I-24, 2-(3-Amino-5-(trifluoromethyl)pyridin-2-yl) propan-2-ol]
M-CSF: significant cytokine change vs. vehicle (M-CSF (CSF1); 200 mpk PO): * (One star indicates P<0.05)

CC(C)(O)c1cc(Cl)c(Cl)cc1N [Compound I-28, 2-(2-Amino-4,5-dichlorophenyl) propan-2-ol]
IL-13: significant cytokine change vs. vehicle (IL-13; 200 mpk PO): * (One star indicates P<0.05) | KC: significant cytokine change vs. vehicle (KC; 200 mpk PO): *** (Three stars indicates P<0.001) | IL-12 (p70): significant cytokine change vs. vehicle (IL-12(p70); 200 mpk PO): * (One star indicates P<0.05) | IL-10: significant cytokine change vs. vehicle (IL-10; 200 mpk PO): * (One star indicates P<0.05) | MCP-1: significant cytokine change vs. vehicle (MCP-1(CCL2)): * (One star indicates P<0.05)

CC(O)(c1ccc(C(F)(F)F)cc1N)C(F)(F)F (stereo not shown) [Compound I-33, 2-(2-Amino-4-(trifluoromethyl)phenyl)-1,1,1-trifluoropropan-2-ol]
LIF: significant cytokine change vs. vehicle [1]: **** (Four stars indicates P<0.0001) | IL-13: significant cytokine change vs. vehicle (IL-13; 75 mpk PO): ** (Two stars indicates P<0.01) | MIP-2: significant cytokine change vs. vehicle (MIP2(CXCL2)): ** (Two stars indicates P<0.01) | KC: significant cytokine change vs. vehicle (KC; 75 mpk PO): ** (Two stars indicates P<0.01) | IL-3: significant cytokine change vs. vehicle (IL-3; 75 mpk PO): ** (Two stars indicates P<0.01) | IL-12 (p70): significant cytokine change vs. vehicle (IL-12(p70); 75 mpk PO): * (One star indicates P<0.05)

CC(O)(c1sc2ccc(C(F)(F)F)cc2c1N)C(F)(F)F (stereo not shown) [Compound I-16, 2-(3-Amino-5-(trifluoromethyl)benzo[b]thiophen-2-yl)-1,1,1-trifluoropropan-2-ol]
M-CSF: significant cytokine change vs. vehicle (M-CSF (CSF1); 200 mpk PO): **** (Four stars indicates P<0.0001) | IL-3: significant cytokine change vs. vehicle (IL-3; 200 mpk PO): * (One star indicates P<0.05) | IL-10: significant cytokine change vs. vehicle (IL-10; 200 mpk PO): ** (Two stars indicates P<0.01) | MCP-1: significant cytokine change vs. vehicle (MCP-1(CCL2)): * (One star indicates P<0.05)

CC(C)(O)c1cc2c(cc1N)OCCO2 [Compound I-26, 2-(7-Amino-2,3-dihydrobenzo[b] [1,4]dioxin-6-yl) propan-2-ol]
IL-9: significant cytokine change vs. vehicle (IL-9): * (One star indicates P<0.05)

CC(C)(O)c1cc2occc2cc1N [Compound I-22, 2-(5-Aminobenzofuran-6-yl) propan-2-ol]
M-CSF: significant cytokine change vs. vehicle (M-CSF (CSF1); 100 mpk PO): ** (Two stars indicates P<0.01)
